The text below walks through data of patent publication US20070169671A1, “Mold Inhibiting Admixture for a Cementitious Material” (priority 2006, published 2007).

In the experiment the test system is mold. The experiment is described as follows: Mold growth on inoculated cementitious material samples. The note with it: cementitious materials formed from mixtures including calcium propionate solutions (0.05, 0.1, 0.2% by weight of concrete ingredients); inoculated with a composition of mold; after two weeks in an environment conducive of mold growth. Format: cell-based. From the text:
Samples of cementitious materials formed from a cementitious mixture including the calcium propionate solutions were inoculated with a composition of mold and placed in an environment conducive of mold growth.

`CCC(=O)[O-].CCC(=O)[O-].[Ca+2]` [calcium propionate]: the “mold propagation on the cementitious materials” value is listed as “no mold propagation was observed”.
